Measured values published in patent US20180296523A1, “USE OF POLYMETHOXYLATED FLAVONES TO AMELIORATE CIRCADIAN RHYTHM DISORDERS” (THE BOARD OF REGENTS OF THE UNIVERSITY OF TEXAS SY, priority 2017, published 2018).
Values belong to the molecule of their own block, whether it stands above or below them.

Experiments:
[1] = biological target: T1, RORα-LBD (Homo sapiens, UniProt P35398); assay: Radioligand receptor binding assay with 25-[3H]-OHC, RORα-LBD; conditions: for competitive binding to RORα-LBD: in the presence of 4.5 nM 25-[3H]-OHC
T1 sequence (P35398 272-510 limits assumed): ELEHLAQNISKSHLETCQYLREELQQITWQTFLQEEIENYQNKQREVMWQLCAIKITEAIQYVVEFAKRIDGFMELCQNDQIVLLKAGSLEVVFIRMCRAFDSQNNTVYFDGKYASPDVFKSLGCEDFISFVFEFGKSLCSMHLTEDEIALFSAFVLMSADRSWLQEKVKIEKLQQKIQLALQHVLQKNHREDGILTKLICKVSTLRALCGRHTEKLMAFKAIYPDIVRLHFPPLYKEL
Method: (§1) Ligand binding was determined by filter binding assays to calculate the Kd value. […] Ki was determined using the Cheng-Prusoff equation.

[2] = biological target: T2, GAL4 DBD-RORα LBD (Mus musculus, UniProt P51448); assay: Mammalian one-hybrid reporter assay in HEK293T cells, GAL4-RORα; format: cell-based; conditions: ligand interaction reduces transcriptional activity
T2 construct: mouse RORα-LBD (aa 261-523); expressed in transfected cells; host or cells: HEK293T
T2 sequence (P51448 261-523): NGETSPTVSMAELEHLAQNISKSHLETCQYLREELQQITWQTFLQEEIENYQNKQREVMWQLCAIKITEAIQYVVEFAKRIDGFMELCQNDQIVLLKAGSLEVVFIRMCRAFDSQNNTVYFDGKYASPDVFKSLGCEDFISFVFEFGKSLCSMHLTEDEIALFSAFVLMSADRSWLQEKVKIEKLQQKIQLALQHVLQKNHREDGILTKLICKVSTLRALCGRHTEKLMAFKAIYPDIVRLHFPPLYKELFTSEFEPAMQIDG
Text: (§2) Plasmids containing the retinoic acid-related orphan receptor response element (RORE) from mouse Bmal1 promoter, pcDNA3.1B-G4DBD-RORαLBD and pcDNA3.1BG4DBD-RORγLBD were constructed in our lab. Specifically, the 1960 bp sequences (−1830/+130) of the mouse Bmal1 promoter harboring either WT ([…] (SEQ ID NO:1) and […] (SEQ ID NO:2)) or mutant ([…] (SEQ ID NO:3)) RORE were PCR amplified from mouse genomic DNA and cloned into pGL3-promoter luciferase vector. For expression of RORα or RORγ-GAL4 protein, mouse RORα-LBD (aa 261-523) or RORγ-LBD (aa 250-516) were PCR amplified from mouse genomic DNA and cloned into a GAL4-DBD-containing vector, pcDNA3.1B.
(§3) For mammalian one-hybrid assays, HEK293T cells were cotransfected with pcDNA3.1B-G4DBD-RORα/γLBD, pGL4.31 and TK promoter Renilla luciferase construct (tK.pRL). To investigate the regulation of the Bmal1 reporter, Hepa1-6 cells were cotransfected with Bmal1-WT or mutant RORE reporter plasmids, RORα, RORγ or Rev-erbα expression construct along with tK.pRL. Mouse and human siRNA targeting RORα and RORγ were purchased from Santa Cruz. Transfection was performed by Lipfectamine 2000 reagent (Invitrogen) Twenty-four hours after transfection, the cells were treated with vehicle or NOB. Lysates were collected 24 h after treatment, and firefly and Renilla luciferase activities were measured by using a Dual-Luciferase Reporter System (Promega).
(§4) For radio-ligand receptor binding assays, previously described protocols with minor modifications (Kumar et al., 2010; Wang et al., 2010b) were adopted.

[3] = biological target: T3, GAL4 DBD-RORγ LBD (Mus musculus, UniProt P51450); assay: Mammalian one-hybrid reporter assay in HEK293T cells, GAL4-RORγ; format: cell-based; conditions: ligand interaction reduces transcriptional activity
T3 construct: RORγ-LBD (aa 250-516); expressed in transfected cells; host or cells: HEK293T
T3 sequence (P51450 250-516): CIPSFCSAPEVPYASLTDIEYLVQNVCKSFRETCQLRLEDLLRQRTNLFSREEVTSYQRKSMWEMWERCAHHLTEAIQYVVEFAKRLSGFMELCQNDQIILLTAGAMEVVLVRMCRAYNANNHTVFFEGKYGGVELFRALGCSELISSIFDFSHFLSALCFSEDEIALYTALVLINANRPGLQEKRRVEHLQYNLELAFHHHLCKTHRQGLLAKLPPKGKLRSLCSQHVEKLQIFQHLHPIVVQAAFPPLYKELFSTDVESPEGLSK
Text: as §2, §3, §4

[4] = test system: Clock^Δ19/+ PER2::Luc reporter cells; assay: High-throughput chemical screen, PER2::Luc reporter rhythm; format: cell-based, mouse; conditions: for PER2::Luc reporter rhythm / circadian amplitude: Clock^Δ19/+ cells, forskolin pre-stimulated
Method: Specifically, the chemical screen for circadian clock modulators was conducted at the Chemical Genomics Core facility at the University of Texas Health Science Center at Houston (UTHSC-H). The in-house chemical library screened consisted of compounds from the National Institutes of Health (NIH) Clinical Collection, National Cancer Institute collection, and Microsource Spectrum Collection. Screening was conducted largely on the basis of the protocol previously described (Chen et al., 2012). […] Upon confluency, cells were incubated with 5 μM forskolin for 1-2 hr, followed by the addition of chemical compounds to the plates with robotic arms (Beckman), and then subjected to continuous monitoring over several days in a temperature-controlled EnVision microplate reader (Perkin Elmer). Data analysis was carried out by using the MultiCycle software (Actimetrics) for measurement of period, phase, and amplitude. The chemical screen for circadian clock modulators was conducted at the Chemical Genomics Core facility at the UTHSC-H. The in-house chemical library screened consists of compounds from NIH Clinical Collection, NCI collection and Microsource Spectrum Collection. The screening was conducted largely based on the protocol previously described (Chen et al., 2012). […] Cells were then incubated with 5 μM forskolin for 1-2 h followed by the addition of chemical compounds to the plates with robotic arms (Beckman), and then subjected to continuous monitoring over several days in a temperature-controlled EnVision microplate reader (Perkin Elmer). Data analysis was carried out by using the MultiCycle software (Actimetrics) for measurement of period, phase, and amplitude. […] Tissue explant experiments were conducted as described previously (Chen et al., 2012).

[5] = biological target: T4, RORγ-LBD (Homo sapiens, UniProt P51449); assay: Radioligand receptor binding assay with 25-[3H]-OHC, RORγ-LBD; conditions: in the presence of 4.5 nM 25-[3H]-OHC
T4 sequence (P51449 269-508 limits assumed): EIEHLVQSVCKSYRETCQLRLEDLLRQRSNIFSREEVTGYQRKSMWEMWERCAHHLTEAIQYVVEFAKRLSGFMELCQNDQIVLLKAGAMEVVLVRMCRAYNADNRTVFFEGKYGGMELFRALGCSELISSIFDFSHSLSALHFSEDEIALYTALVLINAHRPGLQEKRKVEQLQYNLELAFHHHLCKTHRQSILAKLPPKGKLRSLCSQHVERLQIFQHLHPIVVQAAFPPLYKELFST
Method: as §1

[6] = test system: PER2::LucSV reporter fibroblast cells; assay: Dose response validation of reporter rhythm in PER2::LucSV cells; format: cell-based, mouse; conditions: PER2::LucSV reporter cells
Method: The chemical screen for circadian clock modulators was conducted at the Chemical Genomics Core facility at the UTHSC-H. The in-house chemical library screened consists of compounds from NIH Clinical Collection, NCI collection and Microsource Spectrum Collection. The screening was conducted largely based on the protocol previously described (Chen et al., 2012). […] Cells were then incubated with 5 μM forskolin for 1-2 h followed by the addition of chemical compounds to the plates with robotic arms (Beckman), and then subjected to continuous monitoring over several days in a temperature-controlled EnVision microplate reader (Perkin Elmer). Data analysis was carried out by using the MultiCycle software (Actimetrics) for measurement of period, phase, and amplitude. […] Tissue explant experiments were conducted as described previously (Chen et al., 2012).

total number of binding sites (Bmax) ([1]; Scatchard plot, RORα): 100 fmol/mg of protein
SMILES: C[C@H](CCCC(C)(C)O)[C@H]1CC[C@H]2[C@@H]3CC=C4C[C@@H](O)CC[C@]4(C)[C@H]3CC[C@]12C [25-[3H]—OHC, 25-[3H]-hydroxycholesterol]

activity on GAL4-RORα chimeric receptor [2]: robust activities
activity on GAL4-RORγ chimeric receptor [3]: robust activities
SMILES: CC(=O)Nc1nc(C)c(S(=O)(=O)Nc2ccc(C(O)(C(F)(F)F)C(F)(F)F)cc2)s1 [SR1001]

competitive binding to RORγ-LBD [5]: no direct binding
competitive binding to RORγ-LBD ([5]; listed as Naringenin): markedly diminished binding
competitive binding to RORα-LBD [1]: no direct binding
competitive binding to RORα-LBD ([1]; listed as Naringenin): markedly diminished binding
SMILES: O=C1C[C@@H](c2ccc(O)cc2)Oc2cc(O)cc(O)c21 [naringenin]
PER2::Luc reporter rhythm / circadian amplitude [4]: failed to enhance cellular circadian rhythms
reporter luminescence ([4]; PER2::LUC Clock^Δ19/+ reporter cells): did not enhance the reporter luminescence
reporter luminescence [6]: did not enhance the reporter luminescence

SMILES: COc1ccc(-c2cc(=O)c3c(OC)c(OC)c(OC)c(OC)c3o2)cc1 [tangeretin]
PER2::Luc reporter rhythm / circadian amplitude [4]: similarly enhanced the PER2::Luc reporter rhythm
